Reference: PubChem BioAssay (NCI)
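These data come from cells grown in 96-well plates and exposed to compound for 48 hours at five concentrations. TGI denotes the concentration required for complete inhibition of growth.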

Experiments:
Assay in all cases: NCI tumour cell line growth inhibition, 48 h
786-0 renal = system: 786-0 renal
A498 renal = system: A498 renal
A549 NSCLC = system: A549 NSCLC
ACHN renal = system: ACHN renal
CAKI-1 renal = system: CAKI-1 renal
CCRF-CEM leukemia = system: CCRF-CEM leukemia
COLO 205 colon = system: COLO 205 colon
DLD-1 colon = system: DLD-1 colon
DMS 114 small cell lung = system: DMS 114 small cell lung
DMS 273 small cell lung = system: DMS 273 small cell lung
EKVX NSCLC = system: EKVX NSCLC
HCC-2998 colon = system: HCC-2998 colon
HCT-116 colon = system: HCT-116 colon
HCT-15 colon = system: HCT-15 colon
HL-60(TB) leukemia = system: HL-60(TB) leukemia
HOP-18 NSCLC = system: HOP-18 NSCLC
HOP-62 NSCLC = system: HOP-62 NSCLC
HT29 colon = system: HT29 colon
IGROV1 ovarian = system: IGROV1 ovarian
K-562 leukemia = system: K-562 leukemia
KM20L2 colon = system: KM20L2 colon
LOX IMVI melanoma = system: LOX IMVI melanoma
LXFL 529 NSCLC = system: LXFL 529 NSCLC
M14 melanoma = system: M14 melanoma
M19-MEL melanoma = system: M19-MEL melanoma
MOLT-4 leukemia = system: MOLT-4 leukemia
NCI-H460 lung = system: NCI-H460 lung
OVCAR-3 ovarian = system: OVCAR-3 ovarian
OVCAR-4 ovarian = system: OVCAR-4 ovarian
OVCAR-8 ovarian = system: OVCAR-8 ovarian
RPMI-8226 leukemia = system: RPMI-8226 leukemia
RXF-631 renal = system: RXF-631 renal
SF-295 CNS = system: SF-295 CNS
SF-539 CNS = system: SF-539 CNS
SK-MEL-5 melanoma = system: SK-MEL-5 melanoma
SK-OV-3 ovarian = system: SK-OV-3 ovarian
SN12C renal = system: SN12C renal
SNB-19 CNS = system: SNB-19 CNS
SNB-78 CNS = system: SNB-78 CNS
SW-620 colon = system: SW-620 colon
TK-10 renal = system: TK-10 renal
U251 CNS = system: U251 CNS
UACC-257 melanoma = system: UACC-257 melanoma
UACC-62 melanoma = system: UACC-62 melanoma
XF 498 CNS = system: XF 498 CNS
KM12 colon = system: KM12 colon
MALME-3M melanoma = system: MALME-3M melanoma
NCI-H23 lung = system: NCI-H23 lung
OVCAR-5 ovarian = system: OVCAR-5 ovarian
RXF 393 renal = system: RXF 393 renal
SF-268 CNS = system: SF-268 CNS
SK-MEL-2 melanoma = system: SK-MEL-2 melanoma
SK-MEL-28 melanoma = system: SK-MEL-28 melanoma
SNB-75 CNS = system: SNB-75 CNS
UO-31 renal = system: UO-31 renal

Structure (SMILES): CCc1c(C#N)c(=O)[nH]c(=O)n1CCN1CCN(C(=O)NCCCCCCNC(=O)N2CCN(CCn3c(CC)c(C#N)c(=O)[nH]c3=O)CC2)CC1
- TGI (786-0 renal): > 100 µM
- TGI (A498 renal): > 100 µM
- TGI (A549 NSCLC): > 100 µM
- TGI (ACHN renal): > 100 µM
- TGI (CAKI-1 renal): > 100 µM
- TGI (CCRF-CEM leukemia): > 100 µM
- TGI (COLO 205 colon): > 100 µM
- TGI (DLD-1 colon): > 100 µM
- TGI (DMS 114 small cell lung): > 100 µM
- TGI (DMS 273 small cell lung): > 100 µM
- TGI (EKVX NSCLC): > 100 µM
- TGI (HCC-2998 colon): > 100 µM
- TGI (HCT-116 colon): > 100 µM
- TGI (HCT-15 colon): > 100 µM
- TGI (HL-60(TB) leukemia): > 100 µM
- TGI (HOP-18 NSCLC): > 100 µM
- TGI (HOP-62 NSCLC): > 100 µM
- TGI (HT29 colon): > 100 µM
- TGI (IGROV1 ovarian): > 100 µM
- TGI (K-562 leukemia): > 100 µM
- TGI (KM20L2 colon): > 100 µM
- TGI (LOX IMVI melanoma): > 100 µM
- TGI (LXFL 529 NSCLC): > 100 µM
- TGI (M14 melanoma): > 100 µM
- TGI (M19-MEL melanoma): > 100 µM
- TGI (MOLT-4 leukemia): > 100 µM
- TGI (NCI-H460 lung): > 100 µM
- TGI (OVCAR-3 ovarian): > 100 µM
- TGI (OVCAR-4 ovarian): > 100 µM
- TGI (OVCAR-8 ovarian): > 100 µM
- TGI (RPMI-8226 leukemia): > 100 µM
- TGI (RXF-631 renal): > 100 µM
- TGI (SF-295 CNS): > 100 µM
- TGI (SF-539 CNS): > 100 µM
- TGI (SK-MEL-5 melanoma): > 100 µM
- TGI (SK-OV-3 ovarian): > 100 µM
- TGI (SN12C renal): > 100 µM
- TGI (SNB-19 CNS): > 100 µM
- TGI (SNB-78 CNS): > 100 µM
- TGI (SW-620 colon): > 100 µM
- TGI (TK-10 renal): > 100 µM
- TGI (U251 CNS): > 100 µM
- TGI (UACC-257 melanoma): > 100 µM
- TGI (UACC-62 melanoma): > 100 µM
- TGI (XF 498 CNS): > 100 µM

Structure (SMILES): CN1N=CSC12C(=O)N(c1ccccc1)C(=O)N2c1ccccc1 (stereo not given)
- TGI (786-0 renal): > 100 µM
- TGI (A498 renal): > 100 µM
- TGI (A549 NSCLC): > 100 µM
- TGI (ACHN renal): > 100 µM
- TGI (CAKI-1 renal): > 100 µM
- TGI (CCRF-CEM leukemia): > 100 µM
- TGI (COLO 205 colon): > 100 µM
- TGI (DLD-1 colon): > 100 µM
- TGI (DMS 114 small cell lung): > 100 µM
- TGI (DMS 273 small cell lung): > 100 µM
- TGI (EKVX NSCLC): > 100 µM
- TGI (HCC-2998 colon): > 100 µM
- TGI (HCT-116 colon): > 100 µM
- TGI (HCT-15 colon): > 100 µM
- TGI (HL-60(TB) leukemia): > 100 µM
- TGI (HOP-18 NSCLC): 9.62 µM
- TGI (HOP-62 NSCLC): > 100 µM
- TGI (HT29 colon): > 100 µM
- TGI (IGROV1 ovarian): > 100 µM
- TGI (K-562 leukemia): > 100 µM
- TGI (KM12 colon): > 100 µM
- TGI (KM20L2 colon): > 100 µM
- TGI (LOX IMVI melanoma): > 100 µM
- TGI (LXFL 529 NSCLC): > 100 µM
- TGI (M14 melanoma): > 100 µM
- TGI (M19-MEL melanoma): > 100 µM
- TGI (MALME-3M melanoma): > 100 µM
- TGI (MOLT-4 leukemia): > 100 µM
- TGI (NCI-H23 lung): > 100 µM
- TGI (NCI-H460 lung): > 100 µM
- TGI (OVCAR-3 ovarian): > 100 µM
- TGI (OVCAR-4 ovarian): > 100 µM
- TGI (OVCAR-5 ovarian): > 100 µM
- TGI (OVCAR-8 ovarian): > 100 µM
- TGI (RPMI-8226 leukemia): > 100 µM
- TGI (RXF 393 renal): > 100 µM
- TGI (RXF-631 renal): > 100 µM
- TGI (SF-268 CNS): > 100 µM
- TGI (SF-295 CNS): > 100 µM
- TGI (SF-539 CNS): > 100 µM
- TGI (SK-MEL-2 melanoma): > 100 µM
- TGI (SK-MEL-28 melanoma): > 100 µM
- TGI (SK-MEL-5 melanoma): > 100 µM
- TGI (SK-OV-3 ovarian): > 100 µM
- TGI (SN12C renal): > 100 µM
- TGI (SNB-19 CNS): > 100 µM
- TGI (SNB-75 CNS): > 100 µM
- TGI (SNB-78 CNS): > 100 µM
- TGI (SW-620 colon): > 100 µM
- TGI (TK-10 renal): > 100 µM
- TGI (U251 CNS): > 100 µM
- TGI (UACC-257 melanoma): > 100 µM
- TGI (UACC-62 melanoma): > 100 µM
- TGI (UO-31 renal): > 100 µM
- TGI (XF 498 CNS): > 100 µM
